Data published in US20060069132A1, “Azolecarboxamide herbicides” (priority 2004, published 2006).

Key:
giant foxtail = test: Test A pre-/postemergence herbicide test; format: in vivo, Setaria faberi
Procedure, shortened: (§1)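 Visual injury scores on a 0–100 scale (100 = complete control) taken about ten days post-treatment in greenhouse against untreated controls; dash means no result. Treatments: preemergence soil spray and postemergence spray to runoff on one- to two-leaf plants 2 to 10 cm tall, surfactant-containing formulation.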

morningglory = test: Test A pre-/postemergence herbicide test; format: in vivo, Ipomoea spp.
Procedure, shortened: as §1

velvetleaf [1] = test: Test A pre-/postemergence herbicide test; format: in vivo, Abutilon theophrasti
Procedure, shortened: as §1

Surinam grass = test: Test C pre-/postemergence herbicide test; format: in vivo, Urochloa decumbens; settings: for Surinam Grass plant response rating: 500 g ai/ha
Procedure, shortened: (§2)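 Visual ratings on a 0–100 scale (100 = complete control) made versus untreated controls after 12 to 14 greenhouse days. Test chemicals, formulated in surfactant-containing non-phytotoxic solvent, applied preemergence to planted seeds or postemergence to 1- to 4-leaf plants (2 to 18 cm).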

corn = test: Test C pre-/postemergence herbicide test; format: in vivo, Zea mays; settings: for Corn plant response rating: 500 g ai/ha
Procedure, shortened: as §2

kochia = test: Test C pre-/postemergence herbicide test; format: in vivo, Kochia scoparia; settings: for Kochia plant response rating: 500 g ai/ha
Procedure, shortened: as §2

lambsquarters = test: Test C pre-/postemergence herbicide test; format: in vivo, Chenopodium album; settings: for Lambsquarters plant response rating: 500 g ai/ha
Procedure, shortened: as §2

pigweed = test: Test C pre-/postemergence herbicide test; format: in vivo, Amaranthus retroflexus; settings: for Pigweed plant response rating: 500 g ai/ha
Procedure, shortened: as §2

velvetleaf [2] = test: Test C pre-/postemergence herbicide test; format: in vivo, Abutilon theophrasti; settings: for Velvetleaf plant response rating: 500 g ai/ha
Procedure, shortened: as §2

rice = test: Test C flooded paddy test; format: in vivo, Oryza sativa; settings: for Plant response rating, Rice: 500 g ai/ha, visual rating after 12 to 14 days
Procedure, shortened: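 Plants were grown to the 1- to 4-leaf stage (2–18 cm) and then treated postemergence, or grown to the 2-leaf stage for the flooded paddy test. They were held in a greenhouse for 12 to 14 days and then scored by eye against controls, where 0 is no effect and 100 is complete control.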

ducksalad = test: Test C flooded paddy test; format: in vivo, Heteranthera limosa; settings: for Plant response rating, Ducksalad: 500 g ai/ha, visual rating after 12 to 14 days
[3] = Postemergence, 500 g ai/ha, 0 to 100 scale, 0 no effect, 100 complete control
[4] = Postemergence, 2000 g ai/ha, 0 to 100 scale, 0 no effect, 100 complete control
[5] = Preemergence, 500 g ai/ha, visual rating, 0 to 100 scale (0 no effect, 100 complete control)
[6] = Preemergence, 2000 g ai/ha, visual rating, 0 to 100 scale (0 no effect, 100 complete control)
[7] = 125 g ai/ha, scale 0 (no effect) to 100 (complete control), visual, 12 to 14 days, preemergence
[8] = Postemergence, 250 g ai/ha, scale 0 to 100, 0 no effect, 100 complete control
[9] = Preemergence, scale 0 to 100, 0 no effect, 100 complete control
[10] = postemergence, 125 g ai/ha, scale 0 to 100
[11] = postemergence, 62 g ai/ha, scale 0 to 100
[12] = 62 g ai/ha, scale 0 to 100 (0 no effect, 100 complete control)
[13] = 125 g ai/ha, scale 0 to 100 (0 no effect, 100 complete control)
[14] = 250 g ai/ha, scale of 0 to 100, 0 is no effect, 100 is complete control
[15] = scale 0 to 100 (0 no effect, 100 complete control)
[16] = 62 g ai/ha, preemergence, scale 0 to 100
[17] = 250 g ai/ha, scale 0-100, preemergence

For CCNC(=O)c1cccc(NC(=O)c2cc(C(C)(C)C)nn2CC)n1 [Compound 144], the “Foxtail, Giant plant response rating” value (giant foxtail; [3]) was 80, the “Plant response rating, Foxtail, Giant” value (giant foxtail; [4]) was 100 and the “Foxtail, Giant plant response rating” value (giant foxtail; [5]) was 90. The “Foxtail, Giant plant response rating” value (giant foxtail; [6]) was 100, the “Morningglory plant response rating” value (morningglory; [3]) was 25 and the “Plant response rating, Morningglory” value (morningglory; [4]) was 35. For the same molecule, the “Morningglory plant response rating” value (morningglory; [5]) was 20, the “Morningglory plant response rating” value (morningglory; [6]) was 75 and the “Velvetleaf plant response rating” value (velvetleaf [1]; [3]) was 55. The “Plant response rating, Velvetleaf” value (velvetleaf [1]; [4]) was 75, the “Velvetleaf plant response rating” value (velvetleaf [1]; [6]) was 90 and the “Velvetleaf plant response rating” value (velvetleaf [1]; preemergence, 500 g ai/ha, visual injury, 0 to 100 scale (0 no effect, 100 complete control)) was 70. The “Plant response rating (0 = no effect, 100 = complete control), Surinam Grass” value (Surinam grass; 62 g ai/ha, preemergence) was 20, the “Plant response rating, Surinam Grass” value (Surinam grass; [7]) was 40 and the “Surinam Grass plant response rating” value (Surinam grass; Postemergence, scale 0 to 100) was 40. The “Plant response rating, Surinam Grass” value (Surinam grass; [8]) was 40, the “Surinam Grass plant response rating” value (Surinam grass; [9]) was 70 and the “Plant response rating, Surinam Grass” value (Surinam grass; [10]) was 0. For the same molecule, the “Plant response rating, Surinam Grass” value (Surinam grass; [11]) was 0, the “Plant response rating (0 = no effect, 100 = complete control), Corn” value (corn; 62 g ai/ha, preemergence) was 0 and the “Plant response rating, Corn” value (corn; [7]) was 30. For the same molecule, the “Plant response rating, Corn” value (corn; 250 g ai/ha, scale 0 to 100 (0 no effect, 100 complete control), visual, 12 to 14 days, preemergence) was 40, the “Corn plant response rating” value (corn; Postemergence, scale 0 to 100) was 30 and the “Plant response rating, Corn” value (corn; [8]) was 20. For the same molecule, the “Corn plant response rating” value (corn; [9]) was 50, the “Plant response rating, Corn” value (corn; [10]) was 20 and the “Plant response rating, Corn” value (corn; [11]) was 10. The “Plant response rating (0 = no effect, 100 = complete control), Kochia” value (kochia; 62 g ai/ha, preemergence) was 75, the “Plant response rating, Kochia” value (kochia; [7]) was 80 and the “Kochia plant response rating” value (kochia; Postemergence, scale 0 to 100) was 85. The “Plant response rating, Kochia” value (kochia; [8]) was 70, the “Kochia plant response rating” value (kochia; [9]) was 100 and the “Plant response rating, Kochia” value (kochia; [10]) was 65. The “Plant response rating (0 = no effect, 100 = complete control), Lambsquarters” value (lambsquarters; 62 g ai/ha, preemergence) was 95, the “Plant response rating, Lambsquarters” value (lambsquarters; [7]) was 95 and the “Lambsquarters plant response rating” value (lambsquarters; Postemergence, scale 0 to 100) was 100. For the same molecule, the “Plant response rating, Lambsquarters” value (lambsquarters; [8]) was 100, the “Lambsquarters plant response rating” value (lambsquarters; [9]) was 100 and the “Plant response rating, Lambsquarters” value (lambsquarters; [10]) was 100. The “Plant response rating, Lambsquarters” value (lambsquarters; [11]) was 100, the “Plant response rating (0 = no effect, 100 = complete control), Pigweed” value (pigweed; 62 g ai/ha, preemergence) was 90 and the “Plant response rating, Pigweed” value (pigweed; [7]) was 90. For the same molecule, the “Pigweed plant response rating” value (pigweed; Postemergence, scale 0 to 100) was 100, the “Plant response rating, Pigweed” value (pigweed; [8]) was 100 and the “Pigweed plant response rating” value (pigweed; [9]) was 100. The “Plant response rating, Pigweed” value (pigweed; [10]) was 100, the “Plant response rating, Pigweed” value (pigweed; [11]) was 100 and the “Plant response rating, Velvetleaf” value (velvetleaf [2]; [7]) was 100. For the same molecule, the “Velvetleaf plant response rating” value (velvetleaf [2]; Postemergence, scale 0 to 100) was 50, the “Plant response rating, Velvetleaf” value (velvetleaf [2]; [8]) was 50 and the “Velvetleaf plant response rating” value (velvetleaf [2]; [9]) was 100. The “Plant response rating, Velvetleaf” value (velvetleaf [2]; [10]) was 20, the “Plant response rating, Velvetleaf” value (velvetleaf [2]; [11]) was 0 and the “Rice plant response rating” value (rice; [12]) was 0. For the same molecule, the “Rice plant response rating” value (rice; [13]) was 20, the “Rice plant response rating” value (rice; [14]) was 30 and the “Plant response rating, Rice” value (rice; [15]) was 30. The “Ducksalad plant response rating” value (ducksalad; [12]) was 20, the “Ducksalad plant response rating” value (ducksalad; [13]) was 50 and the “Ducksalad plant response rating” value (ducksalad; [14]) was 70. For the same molecule, the “Plant response rating, Ducksalad” value (ducksalad; [15]) was 80.
For CCNC(=O)c1ccc(F)c(NC(=O)c2cn(C(C)(C)C)nc2CC)c1 [Compound 193], the “Plant response rating, Surinam Grass” value (Surinam grass; [16]) was 50, the “Plant response rating, Surinam Grass” value (Surinam grass; [7]) was 80 and the “Plant response rating, Surinam Grass” value (Surinam grass; [17]) was 95. The “Surinam Grass plant response rating” value (Surinam grass; [9]) was 100, the “Plant response rating, Corn” value (corn; [16]) was 10 and the “Plant response rating, Corn” value (corn; [7]) was 60. The “Plant response rating, Corn” value (corn; [17]) was 95, the “Corn plant response rating” value (corn; [9]) was 100 and the “Plant response rating, Kochia” value (kochia; [16]) was 85. For the same molecule, the “Plant response rating, Kochia” value (kochia; [7]) was 85, the “Plant response rating, Kochia” value (kochia; [17]) was 100 and the “Kochia plant response rating” value (kochia; [9]) was 100. For the same molecule, the “Plant response rating, Lambsquarters” value (lambsquarters; [16]) was 50, the “Plant response rating, Lambsquarters” value (lambsquarters; [7]) was 100 and the “Plant response rating, Lambsquarters” value (lambsquarters; [17]) was 100. For the same molecule, the “Lambsquarters plant response rating” value (lambsquarters; [9]) was 100, the “Plant response rating, Pigweed” value (pigweed; [16]) was 100 and the “Plant response rating, Pigweed” value (pigweed; [7]) was 100. The “Plant response rating, Pigweed” value (pigweed; [17]) was 100, the “Pigweed plant response rating” value (pigweed; [9]) was 100 and the “Plant response rating, Velvetleaf” value (velvetleaf [2]; [16]) was 0. The “Plant response rating, Velvetleaf” value (velvetleaf [2]; [7]) was 0, the “Plant response rating, Velvetleaf” value (velvetleaf [2]; [17]) was 70 and the “Velvetleaf plant response rating” value (velvetleaf [2]; [9]) was 100. For the same molecule, the “Rice plant response rating” value (rice; [12]) was 25, the “Rice plant response rating” value (rice; [13]) was 50 and the “Rice plant response rating” value (rice; [14]) was 70. For the same molecule, the “Plant response rating, Rice” value (rice; [15]) was 75, the “Ducksalad plant response rating” value (ducksalad; [12]) was 55 and the “Ducksalad plant response rating” value (ducksalad; [13]) was 70. The “Ducksalad plant response rating” value (ducksalad; [14]) was 90 and the “Plant response rating, Ducksalad” value (ducksalad; [15]) was 90.
